Reference: patent publication US6767921B2, “Polymorphic forms of fasidotril, their methods of preparation and pharmaceutical compositions comprising them” (Bioproject, priority 2002, dated 2004)

Assay: thermodynamic stability of the polymorphic crystalline forms of Fasidotril
Type: physicochemical
Text: It has been discovered that Fasidotril can exist in various polymorphic crystalline forms which differ from each other in their physical and spectroscopic properties, their zones of thermodynamic stability and their methods of preparation. Four of these novel forms are described below and will be designated as form I, form II, form III and form IV, respectively.
It is shown that among these four forms, forms I and II are stable at low and high temperature, respectively, while forms III and IV are unstable and can be easily converted to the stable form I or II depending on the operating conditions chosen.
It is also shown that it is possible to convert form I to form II and to convert form II to form I depending on the operating conditions chosen.

Structure (SMILES): CC(=O)SC[C@@H](Cc1ccc2c(c1)OCO2)C(=O)N[C@@H](C)C(=O)OCc1ccccc1 [form I, benzyl (S,S)-2-(2-acetylsulphanylmethyl-3-benzo[1,3]dioxol-5-ylpropionylamino)propionate]
- stability of the polymorphic form (at low temperature): stable

Structure (SMILES): CC(=O)SC[C@@H](Cc1ccc2c(c1)OCO2)C(=O)N[C@@H](C)C(=O)OCc1ccccc1 [form II, benzyl (S,S)-2-(2-acetylsulphanylmethyl-3-benzo[1,3]dioxol-5-ylpropionylamino)propionate]
- stability of the polymorphic form (at high temperature): stable

Structure (SMILES): CC(=O)SC[C@@H](Cc1ccc2c(c1)OCO2)C(=O)N[C@@H](C)C(=O)OCc1ccccc1 [form III, benzyl (S,S)-2-(2-acetylsulphanylmethyl-3-benzo[1,3]dioxol-5-ylpropionylamino)propionate]
- stability of the polymorphic form (can be easily converted to the stable form I or II depending on the operating conditions): unstable
